Measured values as given in patent US20240207455A1, “COMBINATION COMPRISING A NEUROTENSIN RECEPTOR BINDING COMPOUND AND NAPOX” (Fusion Pharmaceuticals Inc., priority 2021, published 2024).

System: subcutaneous AsPC1 tumors
Assay: Efficacy study in mice bearing subcutaneous AsPC1 tumors (tumor volume)
Format: in vivo, SWISS Nude mice
Conditions: ^177Lu-IPN01087 20 MBq/mouse IV weekly x3; NAPOX: oxaliplatin 3.75 mg/kg, liposomal irinotecan 16 mg/kg, folinic acid 75 mg/kg, 5-FU 37.5 mg/kg weekly x2; Groups 2, 3, 5 vs vehicles
Procedure: The AsPC1 cell line was isolated from a metastatic site (ascites) from a patient (Chen WH. et al., In Vitro. 1982 January; 18(1):24-34).
Tumor cells were grown as monolayer at 37° C. in a humidified atmosphere (5% CO2, 95% air). The culture medium is RPMI 1640 containing glutamax supplemented with 10% heat inactivated fetal bovine serum, sodium pyruvate and hepes. For experimental use, tumor cells were detached from the culture flask using accutase and neutralized by addition of complete culture medium. The cells were counted and their viability was assessed by 0.25% trypan blue exclusion assay. Two frozen pellets of AsPC-1 tumor cells were prepared: one frozen cell pellet prepared during the in-vitro cell culture, and one frozen cell pellet prepared using the cell suspension used for tumor induction in mice.
One hundred fifty (150) healthy female SWISS Nude mice (Crl:NU(Ico)-Foxn1 nu), 6-7 weeks old at reception, were obtained from Charles River.
Tumors were induced by subcutaneous injection of ten million (10^7) AsPC-1 cells in 200 μL of RPMI 1640 medium containing matrigel (50:50, v:v, ref: 356237, BD Biosciences, France) into the right flank (in the axis of the heart) of 150 female animals. […]
The treatment efficacy was assessed in terms of the effects of the treatments on the tumor volumes of treated animals relative to control animals. […]

^177Lu-zalsenertant tetraxetan [^177Lu-IPN01087]
AsPC-1 tumor growth (tumor volume), FIG. 2: produced an antitumor effect when compared to the vehicles
